Experimental data as given in patent US20260022142A1, “MACROCYCLIC IMMUNOMODULATORS” (Bristol-Myers Squibb Company, priority 2022, published 2026).
Bridge positions count the residues as written; N and C are the ends. Square brackets hold non-standard residues; d marks the D form. Peptide text beside a SMILES is read from it. * marks the point of attachment. Bip = N[C@@H](Cc1ccc(-c2ccccc2)cc1)C(=O)O; Tyr(3-Me) = Cc1cc(C[C@H](N)C(=O)O)ccc1O; Phe(3-Me) = Cc1cccc(C[C@H](N)C(=O)O)c1; Cha = N[C@@H](CC1CCCCC1)C(=O)O; hSer = N[C@@H](CCO)C(=O)O; Carboxymethyl = O=C(O)C*; Orn = NCCC[C@H](N)C(=O)O; Aun = NCCCCCCCCCCC(=O)O; Dab = NCC[C@H](N)C(=O)O; Dap = NC[C@H](N)C(=O)O

Target: T1, PD-1/PD-L1 interaction (PE-labeled human PD-L1-Ig binding to Jurkat cell line over-expressing human PD-1) (Homo sapiens, UniProt Q15116)
T1 construct: expressed in transfected cells; host or cells: Jurkat
Assay: Jurkat-PD-1 Cell Binding High-Content Screening Assay (CBA)
Type: cell-based
Details: Jurkat cell line over-expressing human PD-1; PE-labeled PD-L1-Ig 20 nM final; read-out: Jurkat hPD1-PDL1 IC50
How it was run: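 Jurkat cells stably over-expressing human PD-1 were seeded in DMEM with 10% fetal calf serum and pre-incubated with compound for 2 h at 37° C. PE-labeled human PD-L1-Ig was then added at 20 nM final for 1 hour, after which cells were fixed with paraformaldehyde, Hoechst-stained and imaged by high-content microscopy.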

T1 sequence (Q15116 25-288): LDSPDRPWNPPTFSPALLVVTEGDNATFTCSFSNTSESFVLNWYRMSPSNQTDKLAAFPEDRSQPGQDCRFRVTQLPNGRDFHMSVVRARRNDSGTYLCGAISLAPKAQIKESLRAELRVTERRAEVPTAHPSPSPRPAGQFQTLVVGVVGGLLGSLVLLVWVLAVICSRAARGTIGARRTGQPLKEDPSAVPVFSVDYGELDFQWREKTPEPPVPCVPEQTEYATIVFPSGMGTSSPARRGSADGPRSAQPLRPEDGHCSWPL

Cc1cccc(C[C@@H]2NC(=O)[C@H](CC(=O)O)NC(=O)[C@H](Cc3ccc(OCC(=O)O)cc3)NC(=O)[C@H](CCCNC(=N)N)NC(=O)CSC[C@@H](C(=O)N[C@@H](CCN)C(=O)NCCCCCCCCCCC(=O)O)NC(=O)[C@H]([C@@H](C)O)NC(=O)[C@H](C(C)C)NC(=O)[C@H](CC3CCCCC3)NC(=O)[C@H](CCN)NC(=O)[C@@H](CC(C)C)NC(=O)[C@H](CCCN)NC(=O)[C@H](Cc3ccc(OCC(=O)O)cc3)NC(=O)[C@H](Cc3ccc(-c4ccccc4)cc3)NC(=O)[C@H](Cc3ccc(OCC(=O)O)cc3)NC2=O)c1 [Compound 2085] ({CH2CO}-RY(Carboxymethyl)D[Phe(3-Me)]Y(Carboxymethyl)[Bip]Y(Carboxymethyl)[Orn][dL][Dab][Cha]VTC[Dab][Aun]-OH; thioether N-14)
IC50: 8.6 nM

Cc1cccc(C[C@@H]2NC(=O)[C@H](CC(=O)O)NC(=O)[C@H](Cc3ccc(OCC(=O)O)cc3)NC(=O)[C@H]([C@@H](C)O)NC(=O)CSC[C@@H](C(=O)N[C@@H](CCN)C(=O)NCCCCCCCCCCC(=O)O)NC(=O)[C@H]([C@@H](C)O)NC(=O)[C@H](C(C)C)NC(=O)[C@H](CC3CCCCC3)NC(=O)[C@H](CCN)NC(=O)[C@@H](CC(C)C)NC(=O)[C@H](CCCN)NC(=O)[C@H](Cc3ccc(OCC(=O)O)cc3)NC(=O)[C@H](Cc3ccc(-c4ccccc4)cc3)NC(=O)[C@H](Cc3ccc(OCC(=O)O)cc3)NC2=O)c1 [Compound 2086] ({CH2CO}-TY(Carboxymethyl)D[Phe(3-Me)]Y(Carboxymethyl)[Bip]Y(Carboxymethyl)[Orn][dL][Dab][Cha]VTC[Dab][Aun]-OH; thioether N-14)
IC50: 10.2 nM

Cc1cccc(C[C@@H]2NC(=O)[C@H](CC(=O)O)NC(=O)[C@H](Cc3ccc(OCC(=O)O)cc3)NC(=O)[C@H](CN)NC(=O)CSC[C@@H](C(=O)N[C@@H](CCN)C(=O)NCCCCCCCCCCC(=O)O)NC(=O)[C@H]([C@@H](C)O)NC(=O)[C@H](C(C)C)NC(=O)[C@H](CC3CCCCC3)NC(=O)[C@H](CCN)NC(=O)[C@@H](CC(C)C)NC(=O)[C@H](CCN)NC(=O)[C@H](Cc3ccc(OCC(=O)O)cc3)NC(=O)[C@H](Cc3ccc(-c4ccccc4)cc3)NC(=O)[C@H](Cc3ccc(O)cc3)NC2=O)c1 [Compound 2087] ({CH2CO}-[Dap]Y(Carboxymethyl)D[Phe(3-Me)]Y[Bip]Y(Carboxymethyl)[Dab][dL][Dab][Cha]VTC[Dab][Aun]-OH; thioether N-14)
IC50: 15.1 nM

Cc1cccc(C[C@@H]2NC(=O)[C@H](CC(=O)O)NC(=O)[C@H](Cc3ccc(OCC(=O)O)cc3)NC(=O)[C@H](CN)NC(=O)CSC[C@@H](C(=O)N[C@@H](CCCN)C(=O)NCCCCCCCCCCC(=O)O)NC(=O)[C@H]([C@@H](C)O)NC(=O)[C@H](C(C)C)NC(=O)[C@H](CC3CCCCC3)NC(=O)[C@H](CCN)NC(=O)[C@@H](CC(C)C)NC(=O)[C@H](CCN)NC(=O)[C@H](Cc3ccc(OCC(=O)O)cc3)NC(=O)[C@H](Cc3ccc(-c4ccccc4)cc3)NC(=O)[C@H](Cc3ccc(O)cc3)NC2=O)c1 [Compound 2088] ({CH2CO}-[Dap]Y(Carboxymethyl)D[Phe(3-Me)]Y[Bip]Y(Carboxymethyl)[Dab][dL][Dab][Cha]VTC[Orn][Aun]-OH; thioether N-14)
IC50: 14.8 nM

Cc1cccc(C[C@@H]2NC(=O)[C@H](CC(=O)O)NC(=O)[C@H](Cc3ccc(OCC(=O)O)cc3)NC(=O)[C@H](Cc3ccc(OCC(=O)O)cc3)NC(=O)CSC[C@@H](C(=O)N[C@@H](CCN)C(=O)NCCCCCCCCCCC(=O)O)NC(=O)[C@H](CO)NC(=O)[C@H](C(C)C)NC(=O)[C@H](CC3CCCCC3)NC(=O)[C@H](CCN)NC(=O)[C@@H](CC(C)C)NC(=O)[C@H](CCCN)NC(=O)[C@H](Cc3ccc(OCC(=O)O)cc3)NC(=O)[C@H](Cc3ccc(-c4ccccc4)cc3)NC(=O)[C@H](C(C)C)NC2=O)c1 [Compound 2089] ({CH2CO}-Y(Carboxymethyl)Y(Carboxymethyl)D[Phe(3-Me)]V[Bip]Y(Carboxymethyl)[Orn][dL][Dab][Cha]VSC[Dab][Aun]-OH; thioether N-14)
IC50: 43.8 nM

Cc1cccc(C[C@@H]2NC(=O)[C@H](CC(=O)O)NC(=O)[C@H](Cc3ccc(OCC(=O)O)cc3)NC(=O)[C@H](CN)NC(=O)CSC[C@@H](C(=O)N[C@@H](CCN)C(=O)NCCCCCCCCCCC(=O)O)NC(=O)[C@H]([C@@H](C)O)NC(=O)[C@H](C(C)C)NC(=O)[C@H](CC3CCCCC3)NC(=O)[C@H](CCN)NC(=O)[C@@H](CC(C)C)NC(=O)[C@H](CCCN)NC(=O)[C@H](Cc3ccc(O)cc3)NC(=O)[C@H](Cc3ccc(-c4ccccc4)cc3)NC(=O)[C@H](Cc3ccc(OCC(=O)O)cc3)NC2=O)c1 [Compound 2090] ({CH2CO}-[Dap]Y(Carboxymethyl)D[Phe(3-Me)]Y(Carboxymethyl)[Bip]Y[Orn][dL][Dab][Cha]VTC[Dab][Aun]-OH; thioether N-14)
IC50: 18.4 nM

Cc1cccc(C[C@@H]2NC(=O)[C@H](CC(=O)O)NC(=O)[C@H](Cc3ccc(OCC(=O)O)cc3)NC(=O)[C@H](CN)NC(=O)CSC[C@@H](C(=O)N[C@@H](CCN)C(=O)NCCCCCCCCCCC(=O)O)NC(=O)[C@H](CO)NC(=O)[C@H](C(C)C)NC(=O)[C@H](CC3CCCCC3)NC(=O)[C@H](CCN)NC(=O)[C@@H](CC(C)C)NC(=O)[C@H](CCCN)NC(=O)[C@H](Cc3ccc(O)cc3)NC(=O)[C@H](Cc3ccc(-c4ccccc4)cc3)NC(=O)[C@H](Cc3ccc(OCC(=O)O)cc3)NC2=O)c1 [Compound 2091] ({CH2CO}-[Dap]Y(Carboxymethyl)D[Phe(3-Me)]Y(Carboxymethyl)[Bip]Y[Orn][dL][Dab][Cha]VSC[Dab][Aun]-OH; thioether N-14)
IC50: 26.1 nM

Cc1cccc(C[C@@H]2NC(=O)[C@H](CC(=O)O)NC(=O)[C@H](Cc3ccc(OCC(=O)O)cc3)NC(=O)[C@H]([C@@H](C)O)NC(=O)CSC[C@@H](C(=O)N[C@@H](CCN)C(=O)NCCCCCCCCCCC(=O)O)NC(=O)[C@H]([C@@H](C)O)NC(=O)[C@H](C(C)C)NC(=O)[C@H](CC3CCCCC3)NC(=O)[C@H](CCN)NC(=O)[C@@H](CC(C)C)NC(=O)[C@H](CCCN)NC(=O)[C@H](Cc3ccc(O)cc3)NC(=O)[C@H](Cc3ccc(-c4ccccc4)cc3)NC(=O)[C@H](Cc3ccc(OCC(=O)O)cc3)NC2=O)c1 [Compound 2092] ({CH2CO}-TY(Carboxymethyl)D[Phe(3-Me)]Y(Carboxymethyl)[Bip]Y[Orn][dL][Dab][Cha]VTC[Dab][Aun]-OH; thioether N-14)
IC50: 25.1 nM

Cc1cccc(C[C@@H]2NC(=O)[C@H](CC(=O)O)NC(=O)[C@H](Cc3ccc(OCC(=O)O)cc3)NC(=O)[C@H]([C@@H](C)O)NC(=O)CSC[C@@H](C(=O)N[C@@H](CCN)C(=O)NCCCCCCCCCCC(=O)O)NC(=O)[C@H](CO)NC(=O)[C@H](C(C)C)NC(=O)[C@H](CC3CCCCC3)NC(=O)[C@H](CCN)NC(=O)[C@@H](CC(C)C)NC(=O)[C@H](CCCN)NC(=O)[C@H](Cc3ccc(OCC(=O)O)cc3)NC(=O)[C@H](Cc3ccc(-c4ccccc4)cc3)NC(=O)[C@H](Cc3ccc(O)cc3)NC2=O)c1 [Compound 2093] ({CH2CO}-TY(Carboxymethyl)D[Phe(3-Me)]Y[Bip]Y(Carboxymethyl)[Orn][dL][Dab][Cha]VSC[Dab][Aun]-OH; thioether N-14)
IC50: 23.2 nM

Cc1cccc(C[C@@H]2NC(=O)[C@H](CC(=O)O)NC(=O)[C@H](Cc3ccc(OCC(=O)O)cc3)NC(=O)[C@H](CCCNC(=N)N)NC(=O)CSC[C@@H](C(=O)N[C@@H](CCN)C(=O)NCCCCCCCCCCC(=O)O)NC(=O)[C@H](CCO)NC(=O)[C@H](C(C)C)NC(=O)[C@H](CC3CCCCC3)NC(=O)[C@H](CCN)NC(=O)[C@@H](CC(C)C)NC(=O)[C@H](CCCN)NC(=O)[C@H](Cc3ccc(OCC(=O)O)cc3)NC(=O)[C@H](Cc3ccc(-c4ccccc4)cc3)NC(=O)[C@H](Cc3ccc(OCC(=O)O)cc3)NC2=O)c1 [Compound 2094] ({CH2CO}-RY(Carboxymethyl)D[Phe(3-Me)]Y(Carboxymethyl)[Bip]Y(Carboxymethyl)[Orn][dL][Dab][Cha]V[hSer]C[Dab][Aun]-OH; thioether N-14)
IC50: 6.6 nM

Cc1cccc(C[C@@H]2NC(=O)[C@H](CC(=O)O)NC(=O)[C@H](Cc3ccc(OCC(=O)O)cc3)NC(=O)[C@H](CCCNC(=N)N)NC(=O)CSC[C@@H](C(=O)N[C@@H](CCN)C(=O)NCCCCCCCCCCC(=O)O)NC(=O)[C@H](CCO)NC(=O)[C@H](C(C)C)NC(=O)[C@H](CC3CCCCC3)NC(=O)[C@H](CCN)NC(=O)[C@@H](CC(C)C)NC(=O)[C@H](CCCN)NC(=O)[C@H](Cc3ccc(O)cc3)NC(=O)[C@H](Cc3ccc(-c4ccccc4)cc3)NC(=O)[C@H](Cc3ccc(OCC(=O)O)cc3)NC2=O)c1 [Compound 2095] ({CH2CO}-RY(Carboxymethyl)D[Phe(3-Me)]Y(Carboxymethyl)[Bip]Y[Orn][dL][Dab][Cha]V[hSer]C[Dab][Aun]-OH; thioether N-14)
IC50: 9.5 nM

Cc1cc(C[C@@H]2NC(=O)[C@H](CC(=O)O)NC(=O)[C@H](Cc3ccc(OCC(=O)O)cc3)NC(=O)[C@H](CN)NC(=O)CSC[C@@H](C(=O)N[C@@H](CCN)C(=O)NCCCCCCCCCCC(=O)O)NC(=O)[C@H](CCO)NC(=O)[C@H](C(C)C)NC(=O)[C@H](CC3CCCCC3)NC(=O)[C@H](CCN)NC(=O)[C@@H](CC(C)C)NC(=O)[C@H](CCCN)NC(=O)[C@H](Cc3ccc(OCC(=O)O)cc3)NC(=O)[C@H](Cc3ccc(-c4ccccc4)cc3)NC(=O)[C@H](C(C)C)NC2=O)ccc1O [Compound 2096] ({CH2CO}-[Dap]Y(Carboxymethyl)D[Tyr(3-Me)]V[Bip]Y(Carboxymethyl)[Orn][dL][Dab][Cha]V[hSer]C[Dab][Aun]-OH; thioether N-14)
IC50: 36.5 nM

Cc1cccc(C[C@@H]2NC(=O)[C@H](CC(=O)O)NC(=O)[C@H](Cc3ccc(OCC(=O)O)cc3)NC(=O)[C@H](CN)NC(=O)CSC[C@@H](C(=O)N[C@@H](CCN)C(=O)NCCCCCCCCCCC(=O)O)NC(=O)[C@@H](CO)NC(=O)[C@H](C(C)C)NC(=O)[C@H](CC3CCCCC3)NC(=O)[C@H](CCN)NC(=O)[C@@H](CC(C)C)NC(=O)[C@H](CCCN)NC(=O)[C@H](Cc3ccc(OCC(=O)O)cc3)NC(=O)[C@H](Cc3ccc(-c4ccccc4)cc3)NC(=O)[C@H](C(C)C)NC2=O)c1 [Compound 2097] ({CH2CO}-[Dap]Y(Carboxymethyl)D[Phe(3-Me)]V[Bip]Y(Carboxymethyl)[Orn][dL][Dab][Cha]V[dS]C[Dab][Aun]-OH; thioether N-14)
IC50: 38.8 nM
